# Source: BindingDB's records for doi:10.1021/cb0500042 (Suny Stony Brook, 2006)
# How the values were obtained:
# [1] = biological target: T1, Enoyl-[acyl-carrier-protein] reductase [NADH] (Mycobacterium tuberculosis (strain ATCC 25618 / H37Rv), UniProt P9WGR1); test: Measurement of Inhibition Constants; conditions: pH 6.8; 22 °C
# T1 sequence (P9WGR1 whole entry): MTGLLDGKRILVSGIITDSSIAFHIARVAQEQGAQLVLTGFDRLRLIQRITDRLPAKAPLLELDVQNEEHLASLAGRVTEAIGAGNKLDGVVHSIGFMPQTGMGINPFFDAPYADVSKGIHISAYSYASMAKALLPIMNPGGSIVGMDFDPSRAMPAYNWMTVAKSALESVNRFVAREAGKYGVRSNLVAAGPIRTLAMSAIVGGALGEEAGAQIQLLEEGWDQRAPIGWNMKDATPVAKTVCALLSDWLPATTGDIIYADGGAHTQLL
# Method: Inhibition constants (Ki) were calculated by determining the kcat and Km (DDCoA) values at several fixed inhibitor concentrations. The inhibition data were analyzed using the standard equation for uncompetitive inhibition. For compounds with Ki values in the low nanomolar range, initial velocities were determined at a fixed substrate concentration and the data were fit to the equation: vi/v0 = (Km + S)/(Km + S[1 + I/ Ki]). Where vi and v0 are the initial velocities in the presence and absence of inhibitor. […] Data fitting was performed using Grafit 4.0 (Erithacus Software Ltd.).
# [2] = biological target: T1, Enoyl-[acyl-carrier-protein] reductase [NADH]; test: Enoyl-CoA Reductase Inhibition Assay; conditions: pH 6.8; 22 °C
# Method: The assay measured the NADH-dependent catalysis of a DD-CoA substrate as a decrease in 340 nm absorbance resulting from conversion of NADH to NAD. The absorbance OD readings were taken on a microreader. The IC50 values were determined using at least eight concentrations, with each concentration assayed in triplicate under saturating substrate conditions. The values were calculated from plots of enzyme activity versus the log of the inhibitor concentration using the GraFit IC50 four-parameter fit software.
SMILES,Ki [1] [nM],IC50 [2] [nM]
CCCCCCCCc1ccc(Oc2ccccc2)c(O)c1 [5-Octyl-2-phenoxy-phenol],1.1,
"NC(=O)C1=CN([C@@H]2O[C@H](CO[P@@](=O)(O)O[P@@](=O)(O)OC[C@H]3O[C@@H](n4cnc5c(N)ncnc54)[C@H](O)[C@@H]3O)[C@@H](O)[C@H]2O)C=C[C@@H]1C(=O)c1ccncc1 [[[(2R,3S,4R,5R)-5-(6-aminopurin-9-yl)-3,4-dihydroxy-oxolan-2-yl]methoxy-hydroxy-phosphoryl]oxy-[[(2R,3S,4R,5R)-5-[(4S)-3-carbamoyl-4-(pyridine-4-carbonyl)-4H-pyridin-1-yl]-3,4-dihydroxy-oxolan-2-yl]methoxy]phosphinic acid]",0.75,
CCCCCCc1ccc(Oc2ccccc2)c(O)c1 [5-hexyl-2-phenoxyphenol],9.4,11
CCCCCCCCCCCCCCc1ccc(Oc2ccccc2)c(O)c1 [2-phenoxy-5-tetradecylphenol],30.3,150
CCCCCc1ccc(Oc2ccccc2)c(O)c1 [5-pentyl-2-phenoxylphenol],11.8,
